Laboratory results taken from US6423734B1, “Method of preventing cancer” (The Procter & Gamble Company, priority 1999, dated 2002).
Several values for one entry are separate records, joined by “and”; a condition that tells them apart may be missing. Equal values may be shown once.

Tested on: C57BL/6J-Apc^Min mice
Assay: Chemopreventive activity in Apc^Min mouse model (intestinal tumor number)
Conditions: for Tumor # ±S.D.: avg. age 118 days
Method: In both studies,—Carbendazim was administered orally at 1000 mg/kg, 1500 mg/kg, and 2000 mg/kg on a twice weekly to end schedule. In order to provide a positive control for the Apc^Min mouse study, Sulindac was administered ad libitum in the drinking water at 85 mg/l. Gemcitabine at 80 mg/kg, i.p., served as the positive control in the MiaPaCa study.
Female C57BL/6J-Apc^Min mice were obtained from The Jackson Laboratory at 4-5 weeks of age. The following day (Day 1), drug treatment begins. The Min (Multiple intestinal neoplasia) mouse is a strain with a mutated murine Apc (adenomatous polyposis coli) gene, which leads to the development of multiple intestinal polyps. This development is time and diet dependent, with 100% of the mice which ingest a high fat diet forming adenomas beginning around 45 days of age. These mice develop in excess of 30 adenomas throughout the intestinal tract during their 120 day life span and are therefore an ideal model for the evaluation of potential chemopreventive agents.
The mean survival times of all groups were calculated, and results are expressed as mean survival of treated mice/mean survival of control mice (T/C)×100%. A T/C value of 150 means that the mice in the treated group lived 50% longer than those of the control group; this is sometimes referred to as the increase in life span, or ILS value.
Statistics were performned on the data using primarily the log rank p-value test.

COC(=O)Nc1nc2ccccc2[nH]1 [Carbendazim, 2-methoxycarbonylamino-benzimidazole]
Tumor # ±S.D. (1000 mg/kg p.o. 2× weekly to end, control 31.70 ± 18.49, 1000 mg/kg): 24.7 and 24.71 ± 7.8
# of non-specific Death (1000 mg/kg p.o. 2× weekly to end, n 10): 3
# of non-specific Death (1500 mg/kg p.o. 2× weekly to end, n 10): 2
Tumor # ±S.D. (2000 mg/kg p.o. 2× weekly to end, control 31.70 ± 18.49, 2000 mg/kg): 19.1 and 19.17 ± 7.36
# of non-specific Death (2000 mg/kg p.o. 2× weekly to end, n 9): 3

CC1=C(CC(=O)O)c2cc(F)ccc2/C1=C\c1ccc([S+](C)[O-])cc1 (stereo not drawn) [Sulindac, reference compound]
# of non-specific Death (0.85 mg/kg p.o. ad libitum/H20, n 9): 0
